Results: US9877956B2, “Antiviral compounds and methods of use thereof” (Trana Discovery, Inc., priority 2014, dated 2018)
Values after ≈ are worked out from the molar mass of the structure shown. Values joined by “and” are separate entries in the source; they are usually repeats but may differ in a detail not shown here. Identical values can stand only once.

Assays:
Assay type in all cases: cell-based
PBMC = experiment: Toxicity in PBMC (Cell Titer 96)
Source text: These compounds were further screened for activity in HIV-1-infected peripheral blood mononuclear cells (PBMC). The data (experiments were repeated, so duplicates are shown) is summarized in the tables below, and also in FIGS. 4A-B and 5A-B.

HUMAN PBMCS = experiment: Cytotoxicity in human PBMCs (XTT); settings: for TOXICITY VALUES (XTT - O.D. @ 450/650 nm), SAMPLE: individual samples, listed as Trana 156
Description: (§1) In these studies, PHA-P stimulated PBMCs from three donors were pooled together and re-suspended in fresh tissue culture medium at 1×10^6 cells/mL and plated in the interior wells of a 96 well round bottom microplate at 50µl/well. A 100µL volume of 9 concentrations of compound serially diluted were transferred to the round-bottom 96 well plate containing the cells in triplicate. Fifty microliters (µL) of HIV-1 at a pre-determined dilution was added. Each plate contained cell control wells and virus control wells in parallel with the experimental wells. After 7 days in culture, efficacy was evaluated by measuring the reverse transcriptase in the culture supernatants and the cells were stained with the tetrazolium dye XTT to evaluate cytotoxicity.

HIV-1 92/HT/599 = HIV-1 92/HT/599 replication in human PBMCs, reverse transcriptase in culture supernatants (RLU); settings: for RLU (Relative Light Units), SAMPLE: individual samples, listed as Trana 156
Description: as §1

SMILES: CC1(C)OC(=O)C(=Cc2ccc(I)o2)C(=O)O1 [HIT #156]
- TOXICITY VALUES (Cell Titer 96 - O.D. @ 490/650 nm), MEAN (PBMC; 100 μM): 1.613 O.D. and 0.847 O.D.
- % CC (PBMC; 100 μM, O.D. relative to cell control): 90.6% and 110.3%
- TOXICITY VALUES (Cell Titer 96 - O.D. @ 490/650 nm), SAMPLE (PBMC; 100 μM, individual samples): 1.651 O.D. and 1.594 O.D. and 0.795 O.D. and 0.787 O.D. and 0.978 O.D.
- TC 90% (PBMC; PBMC, Cell Titer 96): >100 µM
- TC 95% (PBMC; PBMC, Cell Titer 96): >100 µM
- % Cell Viability (HUMAN PBMCS; 0.32 μg/ml): 97.66%
- Cytotoxicity Test Values Mean OD @ 450/650 nm (HUMAN PBMCS; 0.32 μg/ml): 1.094 OD
- TOXICITY VALUES (XTT - O.D. @ 450/650 nm), SAMPLE (HUMAN PBMCS; 0.32 μg/ml): 1.0465 O.D. (2×) and 1.1893 O.D.
- % Cell Viability (HUMAN PBMCS; 1 μg/ml): 99.50%
- Cytotoxicity Test Values Mean OD @ 450/650 nm (HUMAN PBMCS; 1 μg/ml): 1.115 OD
- TOXICITY VALUES (XTT - O.D. @ 450/650 nm), SAMPLE (HUMAN PBMCS; 1 μg/ml): 1.1281 O.D. (2×) and 1.0879 O.D.
- % Cell Viability (HUMAN PBMCS; 3.16 μg/ml): 87.52%
- Cytotoxicity Test Values Mean OD @ 450/650 nm (HUMAN PBMCS; 3.16 μg/ml): 0.980 OD
- TOXICITY VALUES (XTT - O.D. @ 450/650 nm), SAMPLE (HUMAN PBMCS; 3.16 μg/ml): 0.9762 O.D. (2×) and 0.9889 O.D.
- % Cell Viability (HUMAN PBMCS; 9.99 μg/ml): 89.00%
- Cytotoxicity Test Values Mean OD @ 450/650 nm (HUMAN PBMCS; 9.99 μg/ml): 0.997 OD
- TOXICITY VALUES (XTT - O.D. @ 450/650 nm), SAMPLE (HUMAN PBMCS; 9.99 μg/ml): 1.1309 O.D. (2×) and 0.7293 O.D.
- % Cell Viability (HUMAN PBMCS; 31.6 μg/ml): 12.90%
- Cytotoxicity Test Values Mean OD @ 450/650 nm (HUMAN PBMCS; 31.6 μg/ml): 0.145 OD
- TOXICITY VALUES (XTT - O.D. @ 450/650 nm), SAMPLE (HUMAN PBMCS; 31.6 μg/ml): 0.1469 O.D. (2×) and 0.1399 O.D.
- % Cell Viability (HUMAN PBMCS; 100 μg/ml): 14.76%
- Cytotoxicity Test Values Mean OD @ 450/650 nm (HUMAN PBMCS; 100 μg/ml): 0.165 OD
- TOXICITY VALUES (XTT - O.D. @ 450/650 nm), SAMPLE (HUMAN PBMCS; 100 μg/ml): 0.1657 O.D. (2×) and 0.1646 O.D.
- TC 25% (HUMAN PBMCS; human PBMCs, XTT): 12.3 µg/mL (≈ 35.3 µM)
- TC50 (TC 50%) (HUMAN PBMCS; human PBMCs, XTT): 18.0 µg/mL (≈ 51.7 µM)
- TC 95% (HUMAN PBMCS; human PBMCs, XTT): <100 µg/mL
- % Virus Control (HIV-1 92/HT/599; 0.32 μg/ml): 93.58%
- Antiviral Test Values Mean RLU (HIV-1 92/HT/599; 0.32 μg/ml): 18048.7 RLU
- RLU (Relative Light Units), SAMPLE (HIV-1 92/HT/599; 0.32 μg/ml): 9520.0 RLU and 22416.0 RLU and 22210.0 RLU
- % Virus Control (HIV-1 92/HT/599; 1 μg/ml): 110.39%
- Antiviral Test Values Mean RLU (HIV-1 92/HT/599; 1 μg/ml): 21291.7 RLU
- RLU (Relative Light Units), SAMPLE (HIV-1 92/HT/599; 1 μg/ml): 24338.0 RLU and 22848.0 RLU and 16689.0 RLU
- % Virus Control (HIV-1 92/HT/599; 3.16 μg/ml): 62.76%
- Antiviral Test Values Mean RLU (HIV-1 92/HT/599; 3.16 μg/ml): 12105.7 RLU
- RLU (Relative Light Units), SAMPLE (HIV-1 92/HT/599; 3.16 μg/ml): 9530.0 RLU and 14041.0 RLU and 12746.0 RLU
- % Virus Control (HIV-1 92/HT/599; 9.99 μg/ml): 4.15%
- Antiviral Test Values Mean RLU (HIV-1 92/HT/599; 9.99 μg/ml): 800.0 RLU
- RLU (Relative Light Units), SAMPLE (HIV-1 92/HT/599; 9.99 μg/ml): 138.0 RLU and 48.0 RLU and 2214.0 RLU
- % Virus Control (HIV-1 92/HT/599; 31.6 μg/ml): 0.21%
- Antiviral Test Values Mean RLU (HIV-1 92/HT/599; 31.6 μg/ml): 41.3 RLU
- RLU (Relative Light Units), SAMPLE (HIV-1 92/HT/599; 31.6 μg/ml): 46.0 RLU and 42.0 RLU and 36.0 RLU
- % Virus Control (HIV-1 92/HT/599; 100 μg/ml): 0.31%
- Antiviral Test Values Mean RLU (HIV-1 92/HT/599; 100 μg/ml): 60.7 RLU
- RLU (Relative Light Units), SAMPLE (HIV-1 92/HT/599; 100 μg/ml): 68.0 RLU and 62.0 RLU and 52.0 RLU
- EC 25% (HIV-1 92/HT/599; HIV-1 92/HT/599, human PBMCs): 2.35 µg/mL (≈ 6.75 µM)
- EC 95% (HIV-1 92/HT/599; HIV-1 92/HT/599, human PBMCs): 9.82 µg/mL (≈ 28.2 µM)
- EC50 (HIV-1 92/HT/599; Human immunodeficiency virus 1, PBMC, read-out: EC50 (EC 50%), HIV-1 92/HT/599, human PBMCs): 4.06 µg/mL (≈ 11.7 µM)
- Therapeutic Index (TI) 25% (HIV-1 92/HT/599; TC/EC at 25%): 5.23
- Therapeutic Index (TI) 50% (HIV-1 92/HT/599; TC/EC at 50%): 4.43
- Therapeutic Index (TI) 95% (HIV-1 92/HT/599; TC/EC at 95%): <10.18
